The numbers were not newly measured in patent US20180051316A1, “DETECTION OF NUCLEIC ACID POLYMERASE CONFORMATIONAL CHANGES USING A NANOTUBE” (priority 2014, published 2018), which cites them from elsewhere.

One may read the Ki as a dissociation constant, usually derived from enzyme kinetics or from competition with a known ligand.

The data set addresses KF active site (Escherichia coli, UniProt P00582). The settings on record: inhibition of KF catalysis; cited from earlier work.

Chain of KF active site (P00582 324-928): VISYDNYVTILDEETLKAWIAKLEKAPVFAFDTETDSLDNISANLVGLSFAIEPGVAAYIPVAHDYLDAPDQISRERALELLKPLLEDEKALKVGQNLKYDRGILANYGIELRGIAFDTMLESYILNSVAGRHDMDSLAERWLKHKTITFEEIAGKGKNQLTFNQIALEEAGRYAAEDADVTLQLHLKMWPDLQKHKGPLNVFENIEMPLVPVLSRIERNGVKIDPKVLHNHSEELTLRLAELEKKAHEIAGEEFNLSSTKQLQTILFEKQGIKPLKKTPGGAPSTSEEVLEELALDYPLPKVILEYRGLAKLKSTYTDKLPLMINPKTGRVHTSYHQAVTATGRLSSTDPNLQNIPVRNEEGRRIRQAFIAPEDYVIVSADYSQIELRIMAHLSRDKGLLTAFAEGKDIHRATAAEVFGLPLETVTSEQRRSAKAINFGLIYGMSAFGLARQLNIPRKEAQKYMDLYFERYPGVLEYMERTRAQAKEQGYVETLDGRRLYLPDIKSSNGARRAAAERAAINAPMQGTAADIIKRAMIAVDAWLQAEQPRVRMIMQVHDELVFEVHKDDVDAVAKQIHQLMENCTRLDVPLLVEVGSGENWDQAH

For the molecule `Cc1cn(C2CC(O)C(COP(O)(=S)OP(=O)(O)OP(=O)(O)O)O2)c(=O)[nH]c1=O` (single isomer, unassigned) [Rp diastereomer of α-thio-dTTP], the Ki is approximately 30 µM.
